According to patent publication US8946205B2, “1,2,4-triazolo[4,3-a]pyridine derivatives and their use as positive allosteric modulators of mGluR2 receptors” (Janssen Pharmaceuticals, Inc., priority 2009, dated 2015):
Read-outs that look alike come from different tables or passages of the source.

How the values were obtained:
human mGluR2 receptor = target: T1, human mGluR2 receptor (Homo sapiens, UniProt Q14416); assay: [35S]GTPγS binding assay (PAM assay, membranes from CHO cells transfected with the human mGluR2 receptor); type: biochemical; conditions: in presence of glutamate at EC20; pEC50 = -log EC50 (mol/L); read-out: GTPγS-hR2 PAM pEC50 (converted)
T1 construct: expressed in transfected cells; host or cells: CHO cells (membranes)
T1 sequence (Q14416 19-872): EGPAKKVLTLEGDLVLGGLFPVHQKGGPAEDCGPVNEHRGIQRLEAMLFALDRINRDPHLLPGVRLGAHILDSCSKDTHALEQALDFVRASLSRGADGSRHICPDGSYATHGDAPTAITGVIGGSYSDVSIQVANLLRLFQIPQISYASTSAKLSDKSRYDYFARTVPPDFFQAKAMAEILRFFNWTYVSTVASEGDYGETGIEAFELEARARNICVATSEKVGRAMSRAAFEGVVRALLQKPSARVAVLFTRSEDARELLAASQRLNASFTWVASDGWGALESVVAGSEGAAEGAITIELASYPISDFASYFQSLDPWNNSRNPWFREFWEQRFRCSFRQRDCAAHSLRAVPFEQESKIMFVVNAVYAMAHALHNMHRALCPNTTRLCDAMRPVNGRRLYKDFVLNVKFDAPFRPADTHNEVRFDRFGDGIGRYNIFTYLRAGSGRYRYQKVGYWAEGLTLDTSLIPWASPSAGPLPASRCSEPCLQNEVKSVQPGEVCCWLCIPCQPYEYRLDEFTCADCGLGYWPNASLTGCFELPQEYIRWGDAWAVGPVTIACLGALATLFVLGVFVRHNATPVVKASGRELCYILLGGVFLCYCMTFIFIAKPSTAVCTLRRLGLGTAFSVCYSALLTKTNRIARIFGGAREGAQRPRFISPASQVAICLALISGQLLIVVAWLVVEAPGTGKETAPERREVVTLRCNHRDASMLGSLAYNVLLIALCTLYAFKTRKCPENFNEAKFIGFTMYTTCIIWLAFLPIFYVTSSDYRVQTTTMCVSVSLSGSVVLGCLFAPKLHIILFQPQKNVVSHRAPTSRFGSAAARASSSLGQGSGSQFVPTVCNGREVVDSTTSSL
Protocol: The [^35S]GTPγS binding assay is a functional membrane-based assay used to study G-protein coupled receptor (GPCR) function whereby incorporation of a non-hydrolysable form of GTP, [^35S]GTPγS (guanosine 5′-triphosphate, labelled with […] ^35S), is measured. The G-protein α subunit catalyzes the exchange of guanosine 5′-diphosphate (GDP) by guanosine triphosphate (GTP) and on activation of the GPCR by an agonist, [^35S]GTPγS, becomes incorporated and cannot be cleaved to continue the exchange cycle (Harper (1998) Current Protocols in Pharmacology 2.6.1-10, John Wiley & Sons, Inc.). […] Here we describe the use of the [^35S]GTPγS binding assay using membranes from cells transfected with the human mGluR2 receptor and adapted from Schaffhauser et al. ((2003) Molecular Pharmacology 4:798-810) for the detection of the positive allosteric modulation (PAM) properties of the compounds of this invention.
CHO-cells were cultured to pre-confluence and stimulated with 5 mM butyrate for 24 h, prior to washing in PBS, and then collected by scraping in homogenisation buffer (50 mM Tris-HCl buffer, pH 7.4, 4° C.). Cell lysates were homogenized briefly using an ultra-turrax homogenizer. The homogenate was centrifuged at 16,000 RPM (Sorvall RC-5C plus rotor SS-34) for 10 minutes and the supernatant discarded. The pellet was resuspended in 5 mM Tris-HCl, pH 7.4 and centrifuged again (18,000 RPM, 20 min, 4° C.). The final pellet was resuspended in 50 mM Tris-HCl, pH 7.4 and stored at −80° C. in appropriate aliquots before use. Protein concentration was determined by the Bradford method (Bio-Rad, USA) with bovine serum albumin as standard.
Measurement of mGluR2 positive allosteric modulatory activity of test compounds was performed as follows. Test compounds and glutamate were diluted in assay buffer containing 10 mM HEPES acid, 10 mM HEPES salt, pH 7.4, 100 mM NaCl, 3 mM MgCl2 and 10 μM GDP. Human mGlu2 receptor-containing membranes were thawed on ice and diluted in assay buffer supplemented with 14 μg/ml saponin. Membranes were pre-incubated with compound alone or together with a predefined (˜EC20) concentration of glutamate (PAM assay) for 30 min at 30° C. After addition of [^35S]GTPγS (f.c. 0.1 nM) microplates were shaken briefly and further incubated to allow [^35S]GTPγS incorporation on activation (30 minutes, 30° C.). Final assay mixtures contained 7 μg of membrane protein in 10 mM HEPES acid, 10 mM HEPES salt, pH 7.4, 100 mM NaCl, 3 mM MgCl2,10 μM GDP and 10 μg/ml saponin. Total reaction volume was 200 μl. Reactions were terminated by rapid filtration through Unifilter-96 GF/B filter plates (Packard, Meriden, Conn.) using a 96-well Packard filtermate harvester. Filters were washed 6 times with ice-cold 10 mM NaH2PO4/10 mM Na2HPO4, pH 7.4. Filters were then air-dried, and 40 μl of liquid scintillation cocktail (Microscint-O) was added to each well. Membrane-bound radioactivity was counted in a Microplate Scintillation and Luminescence Counter from Packard.
The concentration-response curves of representative compounds of the present invention—obtained in the presence of EC20 of mGluR2 agonist glutamate to determine positive allosteric modulation (PAM)—were generated using the Lexis software interface (developed at J&J). Data were calculated as % of the control glutamate response, defined as the maximal response that is generated upon addition of glutamate alone. Sigmoid concentration-response curves plotting these percentages versus the log concentration of the test compound were analyzed using non-linear regression analysis. The concentration producing half-maximal effect is then calculated as EC50. The pEC50 values below are calculated as the −log EC50 (wherein EC50 is expressed in mol/L). […]

male NMRI mice = assay: Phencyclidine (PCP)-induced hyperlocomotion in mice (video tracking); type: in vivo; conditions: for ED50: Mus musculus, sc, PCP 5 mg/kg s.c., criterion total distance <5500 counts, read-out: ED50 PCP-Inh. (inhibition of PCP-induced hyperlocomotion)
Protocol: On the day of experiments, the mice were brought into the procedural room. They were housed individually and allowed to acclimate for at least a half hour prior to testing. Although the studies were conducted during the light cycle (from 8:00 to 16:00 h), the procedure room was only sparsely lit (3 to 30 LUX) to provide better contrast for the video tracking. Local lighting was used for the injection procedures. During each trial, an individual mouse was placed in an open field arena (grey PVC cylinder with a height of 40 cm and a diameter of 22.5 cm). Each arena was placed on an infrared LED (8×8 LEDs)-lit box (white PVC squared box; 40×40 cm^2; height 12.5 cm). Each mouse was placed in the center of the arena and allowed to explore freely for 30 min. After each trial, the arena was cleaned with a wet and subsequently with a dry cleaning cloth. An infrared sensitive tube camera and a white light source (in arena: 4-7 LUX) were mounted to the ceiling above the observation chamber to record and input activity to a computer. Animal behavior was recorded and analyzed using the Noldus Ethovision XT Video Tracking System (Version 3.1; Noldus, Wageningen, The Netherlands). The total distance traveled (cm) was calculated. Data were then exported to data management systems for further analysis and reporting. Phencyclidine (PCP)-Induced Hyperlocomotion in Mice Test compound or solvent was administered at a pre-defined time before measurement (standard: 30 min) to male NMRI mice that were challenged with phencyclidine (PCP; 5 mg/kg, s.c.) 30 min before measurement. Activity was measured for a period of 30 min. Criterion for drug-induced inhibition of hyperlocomotion: total distance<5500 counts (3.9% false positives in controls; n=154). Conditioned Avoidance Response (CAR) Test Apparatus The apparatus consisted of an inner box surrounded by an outer box. The inner box was composed of four walls of transparent, synthetic material (length×width×height: 30×30×30 cm), an open top, and a grid floor made of 15 pairs of iron bars (2 mm diameter; 6 mm inter-bar distance). Odd and even bars were connected with a source of alternative current (1.0 mA; Coulbourn Instruments Solid State Shocker/Distributor), which could be interrupted by a switch. The outer box was composed of the same material (length×width×height: 40×40×36 cm), also with an open top, with a distance of 5 cm between the inner and outer box on all sides. To decrease the amount of environmental stimuli, three walls of the outer box were made non-transparent. The front wall was left transparent to allow the necessary inspection of the animal during the test. The upper edge of the outer and inner box served as a target for the rats on which to jump with fore- and hind-paws, respectively. Avoidance Conditioning and Selection of Animals From their arrival in the laboratory on the experimental day, male Wiga Wistar rats (230±30 g) were housed in individual cages provided with bedding material. […] Experimental Sessions The rats were tested 3 times, i.e. at 60, 90 and 120 min after the injection of test compound or solvent. Latency to avoidance was recorded. The median avoidance response obtained over the three experimental sessions for each rat were used for further calculations. […] Sleep Wake Electroencephalography (SW-EEG) in Rats SW-EEG analyses are a highly sensitive read-out of a compound's central functional activity that may provide additional insight in the potential therapeutic application (i.e. via drug classification fingerprinting). […] Internal efforts have confirmed that this effect is mGlu2 receptor-mediated, i.e. is absent in mGlu2 KO mice. Sleep abnormalities are often associated with CNS disorders; as such, the potential use of mGlu2 modulators could also have benefit in the treatment of CNS disorders in which (REM) sleep aberrations are manifested. […]

male Wiga Wistar rats = assay: Conditioned avoidance response (CAR) test in rats; type: in vivo; conditions: for ED50: Rattus norvegicus, criterion median avoidance latency >8 s
Protocol: On the day of experiments, the mice were brought into the procedural room. They were housed individually and allowed to acclimate for at least a half hour prior to testing. Although the studies were conducted during the light cycle (from 8:00 to 16:00 h), the procedure room was only sparsely lit (3 to 30 LUX) to provide better contrast for the video tracking. Local lighting was used for the injection procedures. During each trial, an individual mouse was placed in an open field arena (grey PVC cylinder with a height of 40 cm and a diameter of 22.5 cm). Each arena was placed on an infrared LED (8×8 LEDs)-lit box (white PVC squared box; 40×40 cm^2; height 12.5 cm). Each mouse was placed in the center of the arena and allowed to explore freely for 30 min. After each trial, the arena was cleaned with a wet and subsequently with a dry cleaning cloth. An infrared sensitive tube camera and a white light source (in arena: 4-7 LUX) were mounted to the ceiling above the observation chamber to record and input activity to a computer. Animal behavior was recorded and analyzed using the Noldus Ethovision XT Video Tracking System (Version 3.1; Noldus, Wageningen, The Netherlands). The total distance traveled (cm) was calculated. Data were then exported to data management systems for further analysis and reporting. Phencyclidine (PCP)-Induced Hyperlocomotion in Mice Test compound or solvent was administered at a pre-defined time before measurement (standard: 30 min) to male NMRI mice that were challenged with phencyclidine (PCP; 5 mg/kg, s.c.) 30 min before measurement. Activity was measured for a period of 30 min. Criterion for drug-induced inhibition of hyperlocomotion: total distance<5500 counts (3.9% false positives in controls; n=154). Conditioned Avoidance Response (CAR) Test Apparatus The apparatus consisted of an inner box surrounded by an outer box. The inner box was composed of four walls of transparent, synthetic material (length×width×height: 30×30×30 cm), an open top, and a grid floor made of 15 pairs of iron bars (2 mm diameter; 6 mm inter-bar distance). Odd and even bars were connected with a source of alternative current (1.0 mA; Coulbourn Instruments Solid State Shocker/Distributor), which could be interrupted by a switch. The outer box was composed of the same material (length×width×height: 40×40×36 cm), also with an open top, with a distance of 5 cm between the inner and outer box on all sides. To decrease the amount of environmental stimuli, three walls of the outer box were made non-transparent. The front wall was left transparent to allow the necessary inspection of the animal during the test. The upper edge of the outer and inner box served as a target for the rats on which to jump with fore- and hind-paws, respectively. Avoidance Conditioning and Selection of Animals From their arrival in the laboratory on the experimental day, male Wiga Wistar rats (230±30 g) were housed in individual cages provided with bedding material. […] Experimental Sessions The rats were tested 3 times, i.e. at 60, 90 and 120 min after the injection of test compound or solvent. Latency to avoidance was recorded. […] Sleep Wake Electroencephalography (SW-EEG) in Rats SW-EEG analyses are a highly sensitive read-out of a compound's central functional activity that may provide additional insight in the potential therapeutic application (i.e. via drug classification fingerprinting). […]

rats = assay: Sleep wake electroencephalography (SW-EEG) in rats; type: in vivo
Protocol: On the day of experiments, the mice were brought into the procedural room. They were housed individually and allowed to acclimate for at least a half hour prior to testing. Although the studies were conducted during the light cycle (from 8:00 to 16:00 h), the procedure room was only sparsely lit (3 to 30 LUX) to provide better contrast for the video tracking. Local lighting was used for the injection procedures. During each trial, an individual mouse was placed in an open field arena (grey PVC cylinder with a height of 40 cm and a diameter of 22.5 cm). Each arena was placed on an infrared LED (8×8 LEDs)-lit box (white PVC squared box; 40×40 cm^2; height 12.5 cm). Each mouse was placed in the center of the arena and allowed to explore freely for 30 min. After each trial, the arena was cleaned with a wet and subsequently with a dry cleaning cloth. An infrared sensitive tube camera and a white light source (in arena: 4-7 LUX) were mounted to the ceiling above the observation chamber to record and input activity to a computer. Animal behavior was recorded and analyzed using the Noldus Ethovision XT Video Tracking System (Version 3.1; Noldus, Wageningen, The Netherlands). The total distance traveled (cm) was calculated. Data were then exported to data management systems for further analysis and reporting. Phencyclidine (PCP)-Induced Hyperlocomotion in Mice Test compound or solvent was administered at a pre-defined time before measurement (standard: 30 min) to male NMRI mice that were challenged with phencyclidine (PCP; 5 mg/kg, s.c.) 30 min before measurement. Activity was measured for a period of 30 min. Criterion for drug-induced inhibition of hyperlocomotion: total distance<5500 counts (3.9% false positives in controls; n=154). […] Latency to avoidance was recorded. […] Sleep Wake Electroencephalography (SW-EEG) in Rats SW-EEG analyses are a highly sensitive read-out of a compound's central functional activity that may provide additional insight in the potential therapeutic application (i.e. via drug classification fingerprinting). […]

[1] = po, compound administered orally (*), read-out: ED50 CAR-Inh. (inhibition of conditioned avoidance response), administered orally

| EC50 (human mGluR2 receptor) [nM] | melting point [°C] | Structure (SMILES) | inhibition of PCP-induced hyperlocomotion (in words) (male NMRI mice) | ED50 (male NMRI mice) [mg/kg] | also measured |
| --- | --- | --- | --- | --- | --- |
| 22.9 | 243.8 | Cc1ccc(-n2ccc3cc(-c4ccn5c(CC6CC6)nnc5c4Cl)cc(F)c32)cn1 [Compound 31] | inhibited | 7.1 |  |
| 46.8 | 195.6 | Fc1cc(-c2ccn3c(CC4CC4)nnc3c2Cl)cc2ccn(-c3cccnc3)c12 [Compound 48] |  |  |  |
| 182 | > 300 | FC(F)(F)c1c(-c2cnc3c(ccn3CC3CC3)c2)ccn2c(CC3CC3)nnc12 [Compound 25] |  |  |  |
| 17 | > 300 | Cc1ccc(-n2ccc3cc(-c4ccn5c(CC6CC6)nnc5c4C(F)(F)F)cc(F)c32)cn1 [Compound 38] |  |  |  |

Second part, the compound before the results:

| Structure (SMILES) | EC50 (human mGluR2 receptor) [nM] | melting point [°C] | inhibition of PCP-induced hyperlocomotion (in words) (male NMRI mice) | ED50 (male NMRI mice) [mg/kg] | also measured |
| --- | --- | --- | --- | --- | --- |
| O[C@H]1CC[C@H](n2ccc3cc(-c4ccn5c(CC6CC6)nnc5c4C(F)(F)F)ccc32)CC1 [Compound 4] | 11.2 | 206.9 | inhibited | 13.2 | inhibition of the conditioned avoidance response (in words) (male Wiga Wistar rats): inhibited; ED50 (male Wiga Wistar rats; not marked as oral, read-out: ED50 CAR-Inh. (inhibition of conditioned avoidance response)): 20 mg/kg; ED50 (male Wiga Wistar rats; [1]): ≥ 40 mg/kg |
| Clc1c(-c2ccc3c(ccn3-c3cccnc3)c2)ccn2c(CC3CC3)nnc12 [Compound 17, 8-Chloro-3-cyclopropylmethyl-7-[1-(pyridin-3-yl)-1H-indol-5-yl]-[1,2,4]triazolo[4,3-a]pyridine] | 79.4 |  | inhibited | 10.7 | inhibition of the conditioned avoidance response (in words) (male Wiga Wistar rats): inhibited; ED50 (male Wiga Wistar rats; [1]): 20 mg/kg; effect on REM sleep (rats; oral administration): dose-dependently decrease REM sleep; lowest active dose for decrease of REM sleep (rats; p.o.): 10 mg/kg |
| N[C@@]1(C(=O)O)CS(=O)(=O)[C@H]2[C@H](C(=O)O)[C@H]21 [LY404039, reference compound] |  |  |  |  | effect on REM sleep (rats; 3 mg/kg, p.o.): affect REM sleep |
| Clc1c(-c2ccc3c(ccn3-c3ccccn3)c2)ccn2c(CC3CC3)nnc12 [Compound 16] | 67.6 | 197.1 |  |  |  |
